Reference: patent US6500842B1, “8-hydroxy-7-substituted quinolines as anti-viral agents” (Pharmacia & Upjohn Company, priority 1996, dated 2002)
Read-outs that look alike come from different tables or passages of the source.

Tests used:
CMV polymerase = target: T1, CMV polymerase (Human cytomegalovirus, UniProt P08546); test: modified version of the HCMV polymerase assay (100% DMSO dilution, DTT, different enzyme lot); assay type: biochemical; details: for IC50: read-out: IC50
T1 construct: made in house; host or cells: recombinant baculovirus-infected SF-9 cells
T1 sequence (P08546 whole entry): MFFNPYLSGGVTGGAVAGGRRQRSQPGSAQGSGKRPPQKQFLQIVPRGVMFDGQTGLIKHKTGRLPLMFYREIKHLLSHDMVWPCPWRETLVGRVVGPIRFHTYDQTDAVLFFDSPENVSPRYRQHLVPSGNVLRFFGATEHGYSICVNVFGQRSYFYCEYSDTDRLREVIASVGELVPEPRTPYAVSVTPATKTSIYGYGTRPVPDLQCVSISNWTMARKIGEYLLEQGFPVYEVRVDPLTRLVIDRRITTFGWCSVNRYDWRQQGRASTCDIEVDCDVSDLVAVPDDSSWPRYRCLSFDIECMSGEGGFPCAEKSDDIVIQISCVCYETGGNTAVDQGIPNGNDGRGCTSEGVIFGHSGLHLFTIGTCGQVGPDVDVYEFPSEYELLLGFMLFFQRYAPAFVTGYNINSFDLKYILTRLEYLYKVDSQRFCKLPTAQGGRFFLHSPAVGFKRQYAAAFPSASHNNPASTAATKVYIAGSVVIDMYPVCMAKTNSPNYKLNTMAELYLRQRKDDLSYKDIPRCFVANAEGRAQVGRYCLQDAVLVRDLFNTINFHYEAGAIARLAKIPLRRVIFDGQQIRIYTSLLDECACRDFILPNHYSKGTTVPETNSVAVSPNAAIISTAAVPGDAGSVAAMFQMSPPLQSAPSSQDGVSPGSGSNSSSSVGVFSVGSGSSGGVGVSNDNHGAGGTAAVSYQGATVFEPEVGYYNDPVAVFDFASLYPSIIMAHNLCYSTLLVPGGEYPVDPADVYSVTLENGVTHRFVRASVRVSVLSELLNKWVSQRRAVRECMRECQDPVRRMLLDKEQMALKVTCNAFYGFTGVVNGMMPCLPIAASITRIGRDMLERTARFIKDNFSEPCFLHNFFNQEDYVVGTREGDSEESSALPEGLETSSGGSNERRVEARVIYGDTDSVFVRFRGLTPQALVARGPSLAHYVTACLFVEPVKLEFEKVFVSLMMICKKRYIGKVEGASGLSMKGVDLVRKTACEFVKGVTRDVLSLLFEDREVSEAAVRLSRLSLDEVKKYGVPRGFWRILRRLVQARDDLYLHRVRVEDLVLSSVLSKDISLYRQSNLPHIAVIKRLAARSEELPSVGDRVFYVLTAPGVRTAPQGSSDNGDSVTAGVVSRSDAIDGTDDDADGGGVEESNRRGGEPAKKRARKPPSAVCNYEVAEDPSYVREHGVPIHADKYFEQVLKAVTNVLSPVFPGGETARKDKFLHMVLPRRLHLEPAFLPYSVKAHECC
Procedure: The HCMV polymerase assay is performed using a scintillation proximity assay (SPA) as described in several references, such as N. D. Cook, et al., Pharmaceutical Manufacturing International, pages 49-53 (1992); K. Takeuchi, Laboratory Practice, September issue (1992); U.S. Pat. No. 4,568,649 (1986); which are incorporated by reference herein. Reactions are performed in 96-well plates. The assay is conducted in 100 μl volume with 5.4 mM HEPES (pH 7.5), 11.7 mM KCl, 4.5 mM MgCl2, 0.36 mg/ml BSA, and 90 nM ^3H-dTTP. Assays are run with and without CHAPS, (3-[(3-Cholamidopropyl)-dimethylammonio]-1-propane-sulfonate) at a final concentration of 2 mM. HCMV is diluted in enzyme dilution buffer containing 50% glycerol, 250 mM NaCl, 10 mM HEPES (pH 7.5), 100 pg/ml BSA, and 0.01% sodium azide. The HCMV polymerase, which is expressed in recombinant baculovirus-infected SF-9 cells and purified according to literature procedures, is added at 10% (or 10 μl) of the final reaction volume, i.e., 100 μl. Compounds are diluted in 50% DMSO and 10 μl are added to each well. Control wells contain an equivalent concentration of DMSO. Unless noted otherwise, reactions are initiated via the addition of 6 nM biotinylated poly(dA)-oligo(dT) template/primer to reaction mixtures containing the enzyme, substrate, and compounds of interest. Plates are incubated in a 25° C. of 37° C. H2O bath and terminated via the addition of 40 μl/reaction of 0.5 M EDTA (pH 8) per well. Reactions are terminated within the time-frame during which substrate incorporation is linear and varied depending upon the enzyme and conditions used, i.e., 30 min. for HCMV polymerase. Ten μl of streptavidin-SPA beads (20 mg/ml in PBS/10% glycerol) are added following termination of the reaction. Plates are incubated 10 min. at 37° C., then equilibrated to room temperature, and counted on a Packard Topcount. Linear regressions are performed and IC50's are calculated using computer software. Results of the testing of compounds of the present invention in this assay are shown in Tables 1, 2, 5, 9, 10, 11, 13 (except for the last compound which was tested under modified conditions) and 14 below.
A modified version of the above HCMV polymerase assay is performed as described above, but with the following changes: Compounds are diluted in 100% DMSO until final dilution into assay buffer. In the previous assay, compounds are diluted in 50% DMSO. 4.5 mM dithiotherotol (DTT) is added to the polymerase buffer.

HCMV polymerase = target: T2, HCMV polymerase (Human cytomegalovirus, UniProt P08546); test: HCMV polymerase assay (scintillation proximity assay); assay type: biochemical; details: Table 5, pol type CMV
T2 construct: made in house; host or cells: recombinant baculovirus-infected SF-9 cells
T2 sequence (P08546 whole entry): as above
How it was run: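 Baculovirus/SF-9-expressed purified enzyme in HEPES pH 7.5, KCl, 4.5 mM MgCl2, BSA, with 90 nM ³H-dTTP, ± 2 mM CHAPS; started with 6 nM biotinylated poly(dA)-oligo(dT), 30 min, stopped with EDTA. Incorporation read by streptavidin SPA beads; IC50 by linear regression.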

Row | SMILES | melting point | inhibition at 6.25 µM (CMV polymerase; Concentration 6.25 uM, Table 3) [%] | inhibition at 12.5 µM (CMV polymerase; Concentration 12.5 uM, Table 3) [%] | inhibition at 25 µM (CMV polymerase; Concentration 25 uM, Table 3) [%] | inhibition at 50 µM (CMV polymerase; Concentration 50 uM, Table 3) [%] | inhibition at 100 µM (CMV polymerase; Concentration 100 uM, Table 3) [%] | IC50 (CMV polymerase; Table 3) [µM] | inhibition at 6.25 µM (CMV polymerase; Concentration 6.25 μM, Table 6) [%] | inhibition at 25 µM (CMV polymerase; Concentration 25 μM, Table 6) [%] | inhibition at 50 µM (CMV polymerase; Concentration 50 μM, Table 6) [%] | inhibition at 100 µM (CMV polymerase; Concentration 100 μM, Table 6) [%] | inhibition at 3.13 µM (CMV polymerase; Concentration 3.13 μM, Table 6) [%] | inhibition at 12.5 µM (CMV polymerase; Concentration 12.5 μM, Table 6) [%] | inhibition at 200 µM (CMV polymerase; Concentration 200 μM, Table 6) [%] | IC50 (CMV polymerase; Table 6) [µM] | other results
1 | Cc1ccc2c(Cl)cc(S(=O)(=O)NCCCc3ccccc3)c(O)c2n1 [Example 34, 5-Chloro-8-hydroxy-2-methyl-N-(3-phenylpropyl)-7-quinoline-sulfonamide] | 131 to 134 °C | 21 | 57 | 63 | 54 | 97 | 17.2 |  |  |  |  |  |  |  |  | 
2 | Cc1ccc2c(Cl)cc(S(=O)(=O)NCCCN3CCOCC3)c(O)c2n1 [Example 36, 5-Chloro-8-hydroxy-2-methyl-N-[3-(4-morpholinyl)propyl]-7-quinoline-sulfonamide] | 245 to 257 °C | -3 | 6 | 0 | 15 | 3 | > 200 |  |  |  |  |  |  |  |  | inhibition at 3.13 µM (CMV polymerase; Concentration 3.13 uM, Table 3): -1%; inhibition at 200 µM (CMV polymerase; Concentration 200 uM, Table 3): 19%
3 | Cc1ccc2c(Cl)cc(S(=O)(=O)NCc3ccccn3)c(O)c2n1 [Example 59, 5-Chloro-8-hydroxy-2-methyl-N-(2-pyridinylmethyl)-7-quinolinesulfonamide] | 185 to 186 °C |  |  |  |  |  |  | -6 | 0 | 14 | 31 | -7 | -3 | 43 | > 200 | 
4 | Cc1ccc2c(Cl)cc(S(=O)(=O)NCCCCc3ccccc3)c(O)c2n1 [Example 61, 5-Chloro-8-hydroxy-2-methyl-N-(4-phenylbutyl)-7-quinoline-sulfonamide] | 84 to 86 °C |  |  |  |  |  |  | 15 | 30 | 30 | 38 | 13 | 23 | 51 | > 200 | 
5 | Cc1ccc2c(Cl)cc(S(=O)(=O)NCCc3ccccn3)c(O)c2n1 [Example 62, 5-Chloro-8-hydroxy-2-methyl-N-[2-(2-pyridinyl)ethyl]-7-quinolinesulfonamide] | 153 to 155 °C |  |  |  |  |  |  | 3 | 10 | 14 | 33 | 1 | 6 | 42 | > 200 | 
6 | Cc1ccc2c(Cl)cc(S(=O)(=O)NCCc3ccc(NS(=O)(=O)c4c(C)noc4C)cc3)c(O)c2n1 [Example 65, 5-Chloro-8-hydroxy-2-methyl-N-[2-[4-[[(3,5-dimethyl-4-isoxazolyl)sulfonyl]amino]phenyl]ethyl]-7-quinoline-sulfonamide] | 147 to 152 °C (dec.) |  |  |  |  |  |  | -8 | -21 | -23 | -23 | -8 | -13 | -8 | > 200 | 

Further lines, with some results ahead:

Row | melting point | inhibition at 6.25 µM (CMV polymerase; Concentration 6.25 uM, Table 3) [%] | inhibition at 12.5 µM (CMV polymerase; Concentration 12.5 uM, Table 3) [%] | inhibition at 25 µM (CMV polymerase; Concentration 25 uM, Table 3) [%] | inhibition at 50 µM (CMV polymerase; Concentration 50 uM, Table 3) [%] | inhibition at 100 µM (CMV polymerase; Concentration 100 uM, Table 3) [%] | IC50 (CMV polymerase; Table 3) [µM] | inhibition at 6.25 µM (CMV polymerase; Concentration 6.25 μM, Table 6) [%] | inhibition at 25 µM (CMV polymerase; Concentration 25 μM, Table 6) [%] | inhibition at 50 µM (CMV polymerase; Concentration 50 μM, Table 6) [%] | inhibition at 100 µM (CMV polymerase; Concentration 100 μM, Table 6) [%] | SMILES | inhibition at 3.13 µM (CMV polymerase; Concentration 3.13 μM, Table 6) [%] | inhibition at 12.5 µM (CMV polymerase; Concentration 12.5 μM, Table 6) [%] | inhibition at 200 µM (CMV polymerase; Concentration 200 μM, Table 6) [%] | IC50 (CMV polymerase; Table 6) [µM] | other results
7 | 106 to 107 °C | 41 | 44 |  | 89 | 96 | 10 |  |  |  |  | Cc1ccc2c(Cl)cc(S(=O)(=O)NCCOc3ccccc3)c(O)c2n1 [Example 35, 5-Chloro-8-hydroxy-2-methyl-N-(2-phenoxyethyl)-7-quinoline-sulfonamide] |  |  |  |  | inhibition at 3.13 µM (CMV polymerase; Concentration 3.13 uM, Table 3): 31%
8 | 194 to 196 °C | 3 | 12 | 21 | 50 | 55 | 72.3 |  |  |  |  | Cc1ccc2c(Cl)cc(S(=O)(=O)NCCCn3ccnc3)c(O)c2n1 [Example 37, 5-Chloro-8-hydroxy-N-[3-(1H-imidazol-1-yl)propyl]-2-methyl-7-quinolinesulfonamide] |  |  |  |  | 
9 | 115 to 119 °C | 36 | 58 | 62 | 96 | 97 | 10.5 |  |  |  |  | Cc1ccc2c(Cl)cc(S(=O)(=O)NC(c3ccccc3)c3ccccc3)c(O)c2n1 [Example 38, 5-Chloro-N-(diphenylmethyl)-8-hydroxy-2-methyl-7-quinoline-sulfonamide] |  |  |  |  | 
10 | 84 to 88 °C | 28 | 43 | 41 | 79 | 71 | 21.6 |  |  |  |  | Cc1ccc2c(Cl)cc(S(=O)(=O)N[C@H](C)c3ccccc3)c(O)c2n1 [Example 39, (R)-5-Chloro-8-hydroxy-2-methyl-N-(1-phenylethyl)-7-quinolinesulfonamide] |  |  |  |  | inhibition at 3.13 µM (CMV polymerase; Concentration 3.13 uM, Table 3): 16%; inhibition at 200 µM (CMV polymerase; Concentration 200 uM, Table 3): 90%
11 | 83 to 87 °C | 36 | 47 | 53 | 80 | 94 | 13.7 |  |  |  |  | Cc1ccc2c(Cl)cc(S(=O)(=O)N[C@@H](C)c3ccccc3)c(O)c2n1 [Example 40, (S)-5-Chloro-8-hydroxy-2-methyl-N-(1-phenylethyl)-7-quinolinesulfonamide] |  |  |  |  | inhibition at 3.13 µM (CMV polymerase; Concentration 3.13 uM, Table 3): 22%
12 | 178 to 183 °C |  |  |  |  |  |  |  |  |  |  | O=C(NCc1ccc(Cl)cc1)c1ccc2ccc[n+]([O-])c2c1O [Example 58, N-[(4-Chlorophenyl)methyl]-8-hydroxy-7-quinoline-N-oxide carboxamide] |  |  |  |  | % Inhib (HCMV polymerase; Conc 1.00e-004 M): 65%; % Inhib (HCMV polymerase; Conc 1.30e-005 M): 27.9%; % Inhib (HCMV polymerase; Conc 2.50e-005 M): 40.2%; % Inhib (HCMV polymerase; Conc 3.13e-006 M): −2.9%; % Inhib (HCMV polymerase; Conc 5.00e-005 M): 46.2%; % Inhib (HCMV polymerase; Conc 6.25e-006 M): 2.4%; IC50 (HCMV polymerase; read-out: IC50): 49.7 µM
13 | 131 to 133 °C |  |  |  |  |  |  | 19 | 32 | 51 | 55 | Cc1ccc2c(Cl)cc(S(=O)(=O)NCCc3ccc(Cl)cc3)c(O)c2n1 [Example 60, 5-Chloro-N-[2-(4-chlorophenyl)ethyl]-8-hydroxy-2-methyl-7-quinolinesulfonamide] | 30 | 31 | 70 | 57.4 | 
14 | 187 to 193 °C |  |  |  |  |  |  | 34 | 71 | 74 | 92 | O=S(=O)(NCCSc1ccccc1)c1cc(Cl)c2ccc(/C=C/c3ccccc3)nc2c1O [Example 63, (E)-5-Chloro-8-hydroxy-2-(2-phenylethenyl)-N-[2-(phenylthio)ethyl]-7-quinolinesulfonamide] | 29 | 49 |  | 11.4 | 
15 | 269 to 272 °C |  |  |  |  |  |  | 41 | 57 | 64 | 86 | Cc1ccc2c(Cl)cc(S(=O)(=O)NCCc3ccc(NS(=O)(=O)c4ccccc4)cc3)c(O)c2n1 [Example 66, 5-Chloro-8-hydroxy-2-methyl-N-[2-[4-[(phenylsulfonyl)-amino]phenyl]ethyl]-7-quinolinesulfonamide] |  |  | 89 |  | % Inhibition (CMV polymerase; Concentration 6.25 μM, Table 6, 6.25 µM): 30%; % Inhibition (CMV polymerase; Concentration 25 μM, Table 6, 25 µM): 77%; % Inhibition (CMV polymerase; Concentration 50 μM, Table 6, 50 µM): 71%; % Inhibition (CMV polymerase; Concentration 100 μM, Table 6, 100 µM): 91%; % Inhibition (CMV polymerase; Concentration 200 μM, Table 6, 200 µM): 88%
